Test results reported in ChEMBL document CHEMBL4483862, “Open-source discovery of chemical leads for next-generation chemoprotective antimalarials” (2018).

Test system: Plasmodium berghei
Assay: Luciferase/luciferin-expressing antifolate-resistant parasites were used to infect a culture of HepG2 cells that were pre-incubated with compounds. Infected hepatocytes emit light due to the luciferase reaction. Assay results are presented as the percent inhibition of light emission compared to control. […]
Type: functional
Conditions: sporozoite; for IC90: read-out: LUCIFERASE INFECTION ASSAY - IC90

## CC(=O)N1CCCC(c2cc(C(=O)Nc3ccccc3)no2)C1 (stereo not drawn)
FFLUC_HILL_SLOPE 1.94, FFLUC_R_SQUARED 0.745, PBLUC_HILL_SLOPE 0.811, PBLUC_R_SQUARED 0.626, read-out: LUCIFERASE INFECTION ASSAY - IC50
  IC50: 0.0959 µM
  IC90: 1.44 µM

## CCc1c(C)sc2nc(SCC3COc4ccccc4O3)n(-c3ccc(O)cc3C)c(=O)c12 (stereo not drawn)
FFLUC_HILL_SLOPE 1.97, FFLUC_R_SQUARED 0.841, read-out: LUCIFERASE INFECTION ASSAY - IC50
  IC50: > 10 µM
  IC90: > 10 µM

## COc1ccccc1NS(=O)(=O)c1ccc2c(c1)N=Cc1c(F)cccc1O2
FFLUC_HILL_SLOPE 2, FFLUC_R_SQUARED 0.88, HEPG2TOX_HILL_SLOPE 51.5, HEPG2TOX_R_SQUARED 0.639, PBLUC_HILL_SLOPE 12.2, PBLUC_R_SQUARED 0.289, read-out: LUCIFERASE INFECTION ASSAY - IC50
  IC50: 9.2 µM
  IC90: > 10 µM

## O=C(OCc1cc(=O)oc2cc(O)ccc12)c1c2c(nc3ccccc13)/C(=C/c1ccc([N+](=O)[O-])cc1)CCC2
FFLUC_HILL_SLOPE 2.06, FFLUC_R_SQUARED 0.63, PBLUC_HILL_SLOPE 4.67, PBLUC_R_SQUARED 0.673, read-out: LUCIFERASE INFECTION ASSAY - IC50
  IC50: 7.7 µM
  IC90: > 10 µM

## N#CCOc1cc(Cl)cc(Cl)c1
FFLUC_HILL_SLOPE 1.89, FFLUC_R_SQUARED 0.0257, read-out: LUCIFERASE INFECTION ASSAY - IC50
  IC50: > 16.3 µM
  IC90: > 16.3 µM

## O=C(Nc1cccc(C(F)(F)F)c1)OCCSc1ccc([N+](=O)[O-])c2nonc12
FFLUC_HILL_SLOPE 1.97, FFLUC_R_SQUARED 0.686, HEPG2TOX_HILL_SLOPE 15.6, HEPG2TOX_R_SQUARED 0.779, read-out: LUCIFERASE INFECTION ASSAY - IC50
  IC50: > 7.7 µM
  IC90: > 7.7 µM

## COc1ccc(-c2n[nH]c(SC(C(=O)Nc3cc(Cl)cc(Cl)c3)c3ccccc3)nc2=O)cc1 (stereo not drawn)
FFLUC_HILL_SLOPE 1.9, FFLUC_R_SQUARED 0.863, HEPG2TOX_HILL_SLOPE 8.67, HEPG2TOX_R_SQUARED 0.533, PBLUC_HILL_SLOPE 16.2, PBLUC_R_SQUARED 0.618, read-out: LUCIFERASE INFECTION ASSAY - IC50
  IC50: 3.27 µM
  IC90: 3.75 µM

## CCOc1ccc(NC(=O)c2ccccc2NC(=O)COC(=O)/C(=C/c2cc(OC)c(OC)c(OC)c2)c2ccc(-c3ccccc3)cc2)cc1
FFLUC_HILL_SLOPE 2.07, FFLUC_R_SQUARED 0.755, PBLUC_HILL_SLOPE 3.07, PBLUC_R_SQUARED 0.285, read-out: LUCIFERASE INFECTION ASSAY - IC50
  IC50: 6.17 µM
  IC90: > 10 µM

## CC1=C(C(=O)Nc2cc(C)on2)C(c2csc(-c3ccc(Cl)cc3)n2)NC(=S)N1C1CC1 (stereo not drawn)
FFLUC_HILL_SLOPE 2.07, FFLUC_R_SQUARED 0.469, PBLUC_HILL_SLOPE 2.7, PBLUC_R_SQUARED 0.533, read-out: LUCIFERASE INFECTION ASSAY - IC50
  IC50: 4.34 µM
  IC90: 9.79 µM

## N#Cc1c(Cl)cccc1N1CCOCC1
FFLUC_HILL_SLOPE 1.9, FFLUC_R_SQUARED 0.649, HEPG2TOX_HILL_SLOPE 2.33, HEPG2TOX_R_SQUARED 0.905, PBLUC_HILL_SLOPE 3.58, PBLUC_R_SQUARED 0.165, read-out: LUCIFERASE INFECTION ASSAY - IC50
  IC50: 14.1 µM
  IC90: > 14.8 µM

## CC(C)(C)C(=O)/C=c1\[nH]c(=O)/c(=C\c2ccc(-c3ccc(S(=O)(=O)N4CCOCC4)cc3)o2)s1
FFLUC_HILL_SLOPE 2, FFLUC_R_SQUARED 0.892, read-out: LUCIFERASE INFECTION ASSAY - IC50
  IC50: > 10 µM
  IC90: > 10 µM

## CCCCNC(=O)c1c(NC(=O)c2ccccc2)nc2ccccn12
FFLUC_HILL_SLOPE 2.02, FFLUC_R_SQUARED 0.16, HEPG2TOX_HILL_SLOPE 0.796, HEPG2TOX_R_SQUARED 0.541, PBLUC_HILL_SLOPE 4.74, PBLUC_R_SQUARED 0.419, read-out: LUCIFERASE INFECTION ASSAY - IC50
  IC50: 4.95 µM
  IC90: 7.86 µM

## CCCCNC(=O)c1c(NC(=O)c2cccc(C(F)(F)F)c2)nc2ccc(C)cn12
FFLUC_HILL_SLOPE 2.04, FFLUC_R_SQUARED 0.518, HEPG2TOX_HILL_SLOPE 1.13, HEPG2TOX_R_SQUARED 0.759, PBLUC_HILL_SLOPE 2.77, PBLUC_R_SQUARED 0.788, read-out: LUCIFERASE INFECTION ASSAY - IC50
  IC50: 0.453 µM
  IC90: 1 µM

## Cc1cn2c(CC(=O)Nc3ccc(C(F)(F)F)cc3)csc2n1
FFLUC_HILL_SLOPE 1.95, FFLUC_R_SQUARED 0.137, HEPG2TOX_HILL_SLOPE 2.23, HEPG2TOX_R_SQUARED 0.859, PBLUC_HILL_SLOPE 8.61, PBLUC_R_SQUARED 0.683, read-out: LUCIFERASE INFECTION ASSAY - IC50
  IC50: 4.03 µM
  IC90: 5.2 µM

## CCOC(=O)c1c(-c2ccc(C)cc2C)csc1NC(=O)COC(=O)c1cc(OC)c(OC)cc1[N+](=O)[O-]
FFLUC_HILL_SLOPE 2.01, FFLUC_R_SQUARED 0.464, HEPG2TOX_HILL_SLOPE 2.45, HEPG2TOX_R_SQUARED 0.944, PBLUC_HILL_SLOPE 17.4, PBLUC_R_SQUARED 0.281, read-out: LUCIFERASE INFECTION ASSAY - IC50
  IC50: 8.38 µM
  IC90: 9.51 µM

## Cc1nn(-c2ccccc2)c2sc(-c3[nH]nc(-c4ccccc4)c3-c3nc4ccccc4[nH]3)cc12
FFLUC_HILL_SLOPE 1.87, FFLUC_R_SQUARED 0.663, HEPG2TOX_HILL_SLOPE 0.372, HEPG2TOX_R_SQUARED 0.356, PBLUC_HILL_SLOPE 1.24, PBLUC_R_SQUARED 0.688, read-out: LUCIFERASE INFECTION ASSAY - IC50
  IC50: 1.3 µM
  IC90: 7.66 µM

## CN(C)c1cccc(-c2cnc3sc(NCCc4ccc(S(N)(=O)=O)cc4)nn23)c1
FFLUC_HILL_SLOPE 1.97, FFLUC_R_SQUARED 0.664, read-out: LUCIFERASE INFECTION ASSAY - IC50
  IC50: > 7.46 µM
  IC90: > 7.46 µM

## Clc1ccc(-c2nc3ncc(Br)cc3[nH]2)cc1
FFLUC_HILL_SLOPE 1.95, FFLUC_R_SQUARED 0.684, PBLUC_HILL_SLOPE 3.28, PBLUC_R_SQUARED 0.422, read-out: LUCIFERASE INFECTION ASSAY - IC50
  IC50: 1.92 µM
  IC90: 3.76 µM

## Cc1cccc(Cn2nc(C(C)(C)C)cc2-c2nnc(SCc3c(F)cccc3Cl)n2C2CCCCC2)c1
FFLUC_HILL_SLOPE 2.05, FFLUC_R_SQUARED 0.435, PBLUC_HILL_SLOPE 2, PBLUC_R_SQUARED 0.623, read-out: LUCIFERASE INFECTION ASSAY - IC50
  IC50: 4.03 µM
  IC90: > 5.98 µM

## O=C(NC1CCCCC1)c1ccccc1-n1ncc(Cl)c(Cl)c1=O
FFLUC_HILL_SLOPE 2.05, FFLUC_R_SQUARED 0.721, HEPG2TOX_HILL_SLOPE 15.4, HEPG2TOX_R_SQUARED 0.582, PBLUC_HILL_SLOPE 17.3, PBLUC_R_SQUARED 0.758, read-out: LUCIFERASE INFECTION ASSAY - IC50
  IC50: 3.34 µM
  IC90: 3.79 µM

## Cc1nn(-c2ccccc2)c(N2CCCCC2)c1/C=N/Nc1cc(-c2ccccc2)c2ccccc2n1
FFLUC_HILL_SLOPE 1.88, FFLUC_R_SQUARED 0.83, PBLUC_HILL_SLOPE 15.6, PBLUC_R_SQUARED 0.0616, read-out: LUCIFERASE INFECTION ASSAY - IC50
  IC50: 8.96 µM
  IC90: > 10 µM

## N#C/C(=N\Nc1cc(C(F)(F)F)cc(C(F)(F)F)c1)S(=O)(=O)c1ccc(Cl)cc1
FFLUC_HILL_SLOPE 2.02, FFLUC_R_SQUARED 0.178, HEPG2TOX_HILL_SLOPE 2.35, HEPG2TOX_R_SQUARED 0.941, PBLUC_HILL_SLOPE 1.74, PBLUC_R_SQUARED 0.757, read-out: LUCIFERASE INFECTION ASSAY - IC50
  IC50: 0.488 µM
  IC90: 1.73 µM

## O=C(Nc1cc(Cl)cc(Cl)c1)c1cc(Cl)c(-n2cccc2)c(Cl)c1
FFLUC_HILL_SLOPE 1.91, FFLUC_R_SQUARED 0.0412, HEPG2TOX_HILL_SLOPE 16.8, HEPG2TOX_R_SQUARED 0.892, PBLUC_HILL_SLOPE 9.75, PBLUC_R_SQUARED 0.262, read-out: LUCIFERASE INFECTION ASSAY - IC50
  IC50: 3.47 µM
  IC90: 4.35 µM

## O=[N+]([O-])c1c(Sc2ccc(Cl)cc2)ccc2nsnc12
FFLUC_HILL_SLOPE 1.96, FFLUC_R_SQUARED 0.577, HEPG2TOX_HILL_SLOPE 12.8, HEPG2TOX_R_SQUARED 0.787, PBLUC_HILL_SLOPE 2.81, PBLUC_R_SQUARED 0.465, read-out: LUCIFERASE INFECTION ASSAY - IC50
  IC50: 3.88 µM
  IC90: 8.49 µM

## CSc1sc(C(=O)Nc2ccc(F)c(Cl)c2)c(-c2ccc(Cl)cc2)c1C#N
FFLUC_HILL_SLOPE 1.91, FFLUC_R_SQUARED 0.467, read-out: LUCIFERASE INFECTION ASSAY - IC50
  IC50: > 7.55 µM
  IC90: > 7.55 µM

## COc1ccccc1-c1noc(-c2cc3c(s2)CCCCC3)n1
FFLUC_HILL_SLOPE 2.02, FFLUC_R_SQUARED 0.0931, PBLUC_HILL_SLOPE 0.909, PBLUC_R_SQUARED 0.727, read-out: LUCIFERASE INFECTION ASSAY - IC50
  IC50: 0.0754 µM
  IC90: 0.846 µM

## CCOC(=O)c1oc2ccccc2c1CSc1nc2ccccc2c(=O)n1Cc1ccccc1
FFLUC_HILL_SLOPE 1.98, FFLUC_R_SQUARED 0.579, HEPG2TOX_HILL_SLOPE 1.74, HEPG2TOX_R_SQUARED 0.914, PBLUC_HILL_SLOPE 15.9, PBLUC_R_SQUARED 0.125, read-out: LUCIFERASE INFECTION ASSAY - IC50
  IC50: 3.6 µM
  IC90: 4.13 µM

## COc1cc(NC(=O)COC(=O)c2c(C)nn(Cc3ccc(Cl)cc3Cl)c2Cl)c(C)cc1[N+](=O)[O-]
FFLUC_HILL_SLOPE 1.94, FFLUC_R_SQUARED 0.846, read-out: LUCIFERASE INFECTION ASSAY - IC50
  IC50: > 10 µM
  IC90: > 10 µM

## O=[N+]([O-])c1cnc(Sc2nnc(O)n2C2CCCCC2)s1
FFLUC_HILL_SLOPE 1.98, FFLUC_R_SQUARED 0.448, HEPG2TOX_HILL_SLOPE 4.19, HEPG2TOX_R_SQUARED 0.922, PBLUC_HILL_SLOPE 12.6, PBLUC_R_SQUARED 0.344, read-out: LUCIFERASE INFECTION ASSAY - IC50
  IC50: 8.19 µM
  IC90: 9.75 µM
